Data on 6 compounds can be found in patent US20020183256A1, “Cytostatic-integrin conjugates having specifically cleavable linking units” (priority 2000, published 2002).

One data set concerns the target T1, αvβ3 receptor (Homo sapiens, UniProt P05106+P06756).
T1 construct: αvβ3 from human A375 cells was purified; endogenous in cells; host or cells: human A375 cells (receptor purified from the cells, analogous to Wong et al. 1996)
Kind of data set: αvβ3 binding test (echistatin displacement, WGA SPA beads). Conditions: αvβ3 from human A375 cells; for IC50: read-out: IC50 values of the binding to the αvβ3 receptor. Here is the method:
αvβ3 from human A375 cells was purified analogously to a procedure which was described by Wong et al. (Molecular Pharmacology, 50, 529-537 (1996)). In each case, 10 μl of αvβ3 (5 ng) in TBS pH 7.6, 2 mM CaCl2, 1 mM MgCl2, 1% n-octylglucopyranoside (Sigma); 10 μl of test substance in TBS pH 7.6, 0.1% DMSO and 45 μl of TBS pH 7.6, 2 mM CaCl2, 1 mM MgCl2, 1 mM MnCl2 were incubated at room temperature for 1 h. In each case, 25 μl of WGA SPA beads (Amersham, 4 mg/ml) and 10 μl of echistatin (0.1 μCi, Amersham, chloramine-T labelled) were then added. After 16 hours at room temperature, the samples were measured in a scintillation measuring apparatus (Wallac 1450).

The target of the next data set is T2, MMP-2 (Homo sapiens, UniProt P08253).
T2 construct: purchased Calbiochem
T2 sequence (P08253 110-660): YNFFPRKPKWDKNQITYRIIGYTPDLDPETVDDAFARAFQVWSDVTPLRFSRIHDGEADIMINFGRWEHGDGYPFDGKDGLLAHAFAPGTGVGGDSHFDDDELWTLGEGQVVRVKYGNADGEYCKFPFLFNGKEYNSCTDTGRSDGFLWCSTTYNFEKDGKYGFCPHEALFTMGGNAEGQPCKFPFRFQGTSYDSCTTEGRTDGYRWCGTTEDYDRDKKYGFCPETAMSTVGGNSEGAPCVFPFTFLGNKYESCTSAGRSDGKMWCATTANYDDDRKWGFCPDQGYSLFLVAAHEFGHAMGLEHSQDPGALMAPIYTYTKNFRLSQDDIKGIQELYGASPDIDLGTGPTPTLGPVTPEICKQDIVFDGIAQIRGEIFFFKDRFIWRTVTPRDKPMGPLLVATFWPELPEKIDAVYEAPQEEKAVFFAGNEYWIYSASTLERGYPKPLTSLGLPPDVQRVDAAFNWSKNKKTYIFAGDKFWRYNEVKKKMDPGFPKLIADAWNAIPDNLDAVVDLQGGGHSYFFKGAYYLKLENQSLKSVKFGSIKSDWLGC
Briefly: Cleavage of conjugates by MMP-2 in buffer (HPLC). The data set is classed as biochemical. As to conditions: after 6 h incubation with MMP-2; buffer pH 7.5. Here is the method: 2.5 μl MMP-2 (Calbiochem) with a specific activity of 60 μU/μl are incubated with 10 nM of the conjugates exemplified in the example series 1-25 in 1 ml of a medium consisting of 50 mM Tris-HCl pH 7.5, 0.2 M NaCl, 10 mM CaCL2*2H2O and 0.05% Brij 35. The enzyme mediated cleavage of the conjugates is detected by HPLC analysis using an RP18 (5 μM) column with 70% HClO4/water (0.4% v/v) as eluent A and acentonitrile as eluent B (UV detection at […]). The efficiency of the cleavage is assessed by comparing the peak areas of the intact conjugate (starting material) and the cleavage product (tripeptide conjugate of camptothecin) after 6 h and 24 h incubation (cf. Table 5).

A further data set deals with B16F10. Kind of data set: Growth inhibition test (MTT), cytotoxic action on tumour cell lines. The data set is classed as cell-based, mouse. In a few lines:
(§1)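 Cells seeded at 50,000/ml (B16F10 20,000/ml) in RPMI + 10% FCS, grown 1 day at 37 °C, then compound added in DMSO. Growth read on day 6 by MTT (5 h, 37 °C), isopropanol solubilisation, extinction at 595 nm; IC50 reported per line.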

The test system of data set [1] is melanoma xenograft model (MEXF 989). Briefly: In-vivo inhibition of tumour growth using a nude mouse model. Details: species or system athymic nude mice (NMRI nu/nu strain). As to conditions: for optimal T/C in % / lethality: intravenously or intraperitoneally day 1-3 and day 15-17; for optimal T/C in %: MEXF 989; for lethality: MEXF 989 nude mice; for inhibition of the tumor growth (in words): subcutaneously growing melanoma xenograft MEXF 989. An excerpt: (§2) In all in-vivo experiments for investigating the inhibition of tumour growth, athymic nude mice (NMRI nu/nu strain) were used. The tumour was developed by serial passage in nude mice. The human origin of the tumour was confirmed by isoenzymatic and immunohistochemical methods.
(§3) The tumour was implanted subcutaneously in both flanks of nu/nu nude mice 6 to 8 weeks old. The treatment was started, depending on the doubling time, as soon as the tumours had reached a diameter of 5-7 mm. The mice were assigned to the treatment group or the control group (5 mice per group having 8-10 assessable tumours) by randomization. The individual tumours of the control group all grew progressively.
(§4) The size of the tumours was measured in two dimensions by means of a slide gauge. The tumour volume, which correlated well with the cell count, was then used for all assessments. The volume was calculated according to the formula “length×breadth×breadth/2” ([a×b^2]/2, a and b represent two diameters arranged at right angles).
(§5) The values of the relative tumour volume (RTV) were calculated for each individual tumour by dividing the tumour size on day X with the tumour size on day 0 (at the time of randomization). The average values of the RTV were then used for the further assessment.
(§6) The inhibition of the increase of the tumour volume (tumour volume of the test group/control group, T/C, in per cent) was the final measured value.
(§7) The compounds can be administered with a daily or an intermittent therapy schedule through a couple of days either by intraperitoneal, intravenious, oral or subcutaneous route.
(§8) The compounds are dissolved in PEG400/water 2:1 and administered intravenously or intraperitoneally from day 1-3 and day 15-17.

Assay in data set [2]: as above
Set-up: species or system athymic nude mice (NMRI nu/nu strain). Conditions: NMRI nu/nu, mouse, in vivo; intravenously or intraperitoneally day 1-3 and day 15-17; nude mice; read-out: MTD (dose marked MTD).
Source text: as §2, §3, §4, §5, §6, §7, §8

A further data set has as its system SW 480. Kind of data set: Growth inhibition test (MTT), cytotoxic action on tumour cell lines. The data set is classed as cell-based, human. The method, boiled down: as §1
Another data set concerns HT29. Described as above. In kind it is cell-based, human. The method, boiled down: as §1
Another data set relates to hemopoietic stem cells. Kind of data set: CSF-induced proliferation of hemopoietic stem cells (colony formation). In kind it is cell-based, mice. As to conditions: murine bone marrow cells, GM-CSF, 7 days. The procedure:
Bone marrow cells are flushed out of the femur of mice. 10^5 cells are incubated in McCoy 5A medium (0.3% agar) together with recombinant murine GM-CSF (Genzyme; parent cell colony formation) and the substances (10^−4 to 100 μg/ml) at 37° C. and 7% CO2. 7 days later, the colonies […] and clusters (17-50 cells) are counted.

In brackets after ≈: the same amount, converted by molar mass. Where two headings read alike, the source gives them in different places. *1 amine or outer side, *2 acyl side, *3 side chain or, on linkers, in order; H or OH if unused. Where a SMILES comes first, the peptide text is derived from it. [ ]: non-standard residue; d: D form. The star is where a group is joined. Camptothecin(20R,20-O) = CC[C@]1(O*)C(=O)OCc2c1cc1n(c2=O)Cc2cc3ccccc3nc2-1; X1 = CCCNC(=O)Nc1cccc(S(=O)(=O)Nc2cccc(C(CC(=O)O)N*)c2)c1; NH(1,4-C6H4)NHCS = S=C(Nc1ccc(N[*:1])cc1)[*:2]; CO = O=C([*:1])[*:2]; GABA = NCCCC(=O)O

T1 sequence (P06756 31-889 limits assumed): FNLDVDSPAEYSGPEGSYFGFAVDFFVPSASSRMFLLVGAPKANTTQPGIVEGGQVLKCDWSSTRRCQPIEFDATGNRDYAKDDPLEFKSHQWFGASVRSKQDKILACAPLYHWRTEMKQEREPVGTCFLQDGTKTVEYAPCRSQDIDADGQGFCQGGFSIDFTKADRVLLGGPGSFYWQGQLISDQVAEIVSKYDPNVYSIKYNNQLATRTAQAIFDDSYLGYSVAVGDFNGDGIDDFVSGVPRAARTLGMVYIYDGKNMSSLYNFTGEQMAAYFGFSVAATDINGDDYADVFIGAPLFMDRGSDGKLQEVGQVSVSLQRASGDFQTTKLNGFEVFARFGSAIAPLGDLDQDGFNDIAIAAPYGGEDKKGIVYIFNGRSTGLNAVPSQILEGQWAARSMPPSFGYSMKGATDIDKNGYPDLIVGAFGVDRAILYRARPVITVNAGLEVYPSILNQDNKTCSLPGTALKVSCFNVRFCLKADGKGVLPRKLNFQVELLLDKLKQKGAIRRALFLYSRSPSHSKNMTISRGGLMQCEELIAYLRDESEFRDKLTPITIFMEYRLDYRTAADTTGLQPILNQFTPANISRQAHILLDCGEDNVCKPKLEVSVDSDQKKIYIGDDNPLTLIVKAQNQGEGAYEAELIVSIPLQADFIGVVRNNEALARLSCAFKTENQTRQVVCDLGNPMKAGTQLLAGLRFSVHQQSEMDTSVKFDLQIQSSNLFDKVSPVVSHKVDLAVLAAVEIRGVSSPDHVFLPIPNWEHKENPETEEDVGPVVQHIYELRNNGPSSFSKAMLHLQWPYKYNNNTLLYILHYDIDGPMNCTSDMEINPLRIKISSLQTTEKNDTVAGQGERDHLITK
T1 sequence (P06756 891-1048 partner limits assumed): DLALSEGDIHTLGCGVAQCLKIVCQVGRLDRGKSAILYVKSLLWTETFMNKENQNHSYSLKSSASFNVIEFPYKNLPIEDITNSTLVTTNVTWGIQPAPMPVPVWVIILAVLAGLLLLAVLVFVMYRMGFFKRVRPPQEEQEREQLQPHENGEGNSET
T1 sequence (P05106 27-788): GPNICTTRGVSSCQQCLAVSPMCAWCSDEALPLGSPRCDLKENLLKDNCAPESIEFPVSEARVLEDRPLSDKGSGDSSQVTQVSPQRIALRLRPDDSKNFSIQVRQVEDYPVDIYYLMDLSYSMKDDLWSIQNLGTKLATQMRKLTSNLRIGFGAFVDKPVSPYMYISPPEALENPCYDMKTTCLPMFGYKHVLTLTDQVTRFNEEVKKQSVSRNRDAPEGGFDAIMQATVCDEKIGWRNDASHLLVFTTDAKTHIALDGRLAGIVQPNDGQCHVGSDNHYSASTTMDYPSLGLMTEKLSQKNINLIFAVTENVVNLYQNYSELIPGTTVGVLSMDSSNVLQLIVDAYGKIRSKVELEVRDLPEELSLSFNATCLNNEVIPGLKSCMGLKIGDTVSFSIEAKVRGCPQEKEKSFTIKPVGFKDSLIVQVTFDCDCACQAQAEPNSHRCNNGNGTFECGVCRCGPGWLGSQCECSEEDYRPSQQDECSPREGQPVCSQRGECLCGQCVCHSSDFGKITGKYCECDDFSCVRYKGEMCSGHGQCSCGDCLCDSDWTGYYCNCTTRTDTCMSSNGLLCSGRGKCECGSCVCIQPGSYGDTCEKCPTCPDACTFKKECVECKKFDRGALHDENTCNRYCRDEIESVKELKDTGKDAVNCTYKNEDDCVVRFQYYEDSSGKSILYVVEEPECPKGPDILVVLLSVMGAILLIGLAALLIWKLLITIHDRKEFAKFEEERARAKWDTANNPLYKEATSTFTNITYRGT

With `CCCNC(=O)Nc1cccc(S(=O)(=O)Nc2cccc(C(CC(=O)O)NC(=O)Nc3ccc(NC(=S)N4CCC[C@@H]4C(=O)N[C@@H](CC(C)C)C(=O)NCC(=O)N[C@H](CC(C)C)C(=O)N[C@H](Cc4c[nH]cn4)C(=O)N[C@@H](C(=O)O[C@@]4(CC)C(=O)OCc5c4cc4n(c5=O)Cc5cc6ccccc6nc5-4)C(C)C)cc3)c2)c1` (single isomer, unassigned) [Example 2], the IC50 came out at 25 nM on αvβ3 receptor; 500 nM in the data set on B16F10 (mouse, 6 days); 100 nM with SW 480 (human, 6 days); 180 nM in the data set on HT29 (human, 6 days). For the same compound, at MMP-2, the “MMP-2 mediated cleavage Peak area product/educt x100” value is given as 18. The “optimal T/C in %” value in data set [1] (6 mg/kg/day) stood at 17.7%; in data set [1] (12 mg/kg/day), 7.4%. Further, the lethality in data set [1] (6 mg/kg/day) was 0/5; in data set [1] (12 mg/kg/day), 1/5 (MTD). The “inhibition of the tumor growth (in words)” value (from here on “inhibition … (in words)”) in data set [1] was “effected inhibitions of the tumor growth”. The MTD in data set [2] was determined as 12 mg/kg/day.
As for `CCCNC(=O)Nc1cccc(S(=O)(=O)Nc2cccc(C(CC(=O)O)NC(=O)Nc3ccc(NC(=S)N4CCC[C@@H]4C(=O)N[C@@H](CC(C)C)C(=O)NCC(=O)N[C@H](CC(C)C)C(=O)N[C@H](CC(N)=O)C(=O)N[C@@H](C(=O)O[C@@]4(CC)C(=O)OCc5c4cc4n(c5=O)Cc5cc6ccccc6nc5-4)C(C)C)cc3)c2)c1` (single isomer, unassigned) [Example 10], the IC50 worked out at 20 nM on αvβ3 receptor; 600 nM with B16F10 (mouse, 6 days); 70 nM with SW 480 (human, 6 days); 100 nM with HT29 (human, 6 days). Moreover, the “MMP-2 mediated cleavage Peak area product/educt x100” value on MMP-2 is given as 16. Further, the “optimal T/C in %” value in data set [1] (6 mg/kg/day) was 11.4%. Besides, in data set [1] (6 mg/kg/day), the lethality is given as 0/5 (MTD). Further, in data set [1], the “inhibition … (in words)” value is reported as “effected inhibitions of the tumor growth”. The MTD in data set [2] stood at 6 mg/kg/day.
`CCCNC(=O)Nc1cccc(S(=O)(=O)Nc2cccc(C(CC(=O)O)NC(=O)Nc3ccc(NC(=S)N4CCC[C@@H]4C(=O)N[C@@H](CC(C)C)C(=O)NCC(=O)N[C@H](CSC)C(=O)N[C@H](Cc4c[nH]cn4)C(=O)N[C@@H](C(=O)O[C@@]4(CC)C(=O)OCc5c4cc4n(c5=O)Cc5cc6ccccc6nc5-4)C(C)C)cc3)c2)c1` (single isomer, unassigned) [Example 25]: the “MMP-2 mediated cleavage Peak area product/educt x100” value on MMP-2 amounted to 9. Besides, the IC50 in the data set on B16F10 (mouse, 6 days) was 250 nM; in the data set on SW 480 (human, 6 days) it was 60 nM; with HT29 (human, 6 days), 80 nM. Besides, in data set [1] (6 mg/kg/day), the “optimal T/C in %” value is reported as 19.6%. Further, the lethality in data set [1] (6 mg/kg/day) is reported as 1/5 (MTD). In data set [1], the “inhibition … (in words)” value was “effected inhibitions of the tumor growth”. Moreover, the MTD in data set [2] is 6 mg/kg/day.
In the case of `CC[C@@]1(O)C(=O)OCc2c1cc1n(c2=O)Cc2cc3ccccc3nc2-1` [Camptothecin, 20(S)-Camptothecin, reference compound], the IC50 in the data set on hemopoietic stem cells (Mus musculus, Bone marrow cell, 168 h, read-out: IC50 values of the inhibition of colony formation of hemopoietic stem cells) was 0.25 ng/mL (≈ 0.718 nM).
Regarding `CCCNC(=O)Nc1cccc(S(=O)(=O)Nc2cccc(C(CC(=O)O)NC(=O)Nc3ccc(NC(=S)N4CCC[C@@H]4C(=O)N[C@@H](CC(C)C)C(=O)NCC(=O)N[C@H](CC(C)C)C(=O)N[C@H](Cc4c[nH]cn4)C(=O)N[C@@H](C(=O)O[C@@]4(CC)C(=O)OCc5c4cc4n(c5=O)Cc5cc6ccccc6nc5-4)C(C)C)cc3)c2)c1` (stereo partly shown) [Example 1], the IC50 at αvβ3 receptor came out at 40 nM; in the data set on B16F10 (mouse, 6 days), 250 nM; in the data set on SW 480 (human, 6 days) it was 70 nM; in the data set on HT29 (human, 6 days), 50 nM. In addition, the “MMP-2 mediated cleavage Peak area product/educt x100” value at MMP-2 was determined as 17. Moreover, the “IC50 values of the inhibition of colony formation of hemopoietic stem cells” value in the data set with hemopoietic stem cells was 30 ng/mL.
For the compound `CCCNC(=O)Nc1cccc(S(=O)(=O)Nc2cccc(C(CC(=O)O)NC(=O)Nc3ccc(NC(=S)NCCCC(=O)N4CCC[C@@H]4C(=O)N[C@@H](CC(C)C)C(=O)NCC(=O)N[C@H](CC(C)C)C(=O)N[C@H](Cc4c[nH]cn4)C(=O)N[C@@H](C(=O)O[C@@]4(CC)C(=O)OCc5c4cc4n(c5=O)Cc5cc6ccccc6nc5-4)C(C)C)cc3)c2)c1` (stereo partly drawn) [Example 16] ({X1-CO}-[NH(1,4-C6H4)NHCS][GABA][dP]LG[dL][dH][dV]-{Camptothecin(20R,20-O)}), on αvβ3 receptor, the “IC50 values of the binding to the αvβ3 receptor” value is “nix”. Besides, the IC50 stood at 50 nM in the data set with B16F10 (B16F10, MTT after day 6, read-out: IC50 values of the cytotoxic action on tumour cell lines, B16F10); 40 nM in the data set on SW 480 (SW480, MTT after day 6, read-out: IC50 values of the cytotoxic action on tumour cell lines, SW480); 25 nM with HT29 (HT29, MTT after day 6, read-out: IC50 values of the cytotoxic action on tumour cell lines, HT29). The “IC50 values of the inhibition of colony formation of hemopoietic stem cells” value with hemopoietic stem cells worked out at 15 ng/mL.
